Experimental data taken from patent publication US9987254B2, “Ophthalmic composition for correcting presbyopia” (Eurocanarias Oftalmológica, S.L., priority 2013, dated 2018).

Key:
[1] = cited from earlier work
[2] = tested on: prostaglandin synthesis at the level of ciliary body and the iris; conditions: in vitro; cited from earlier work
presbyopia = test: Study in presbyopia patients over 40 years old, non-dominant eye treated, single daily application; type: in vivo, human; conditions: bromfenac combined with pilocarpine
Description: The study carried out by the present invention is based on a composition distinct from Dr. Benotzzi's, as well as on other selection criteria as regards patients, exclusively including patients over 40 years old with evident signs of clear presbyopia with a refractive defect among −0.50 of myopia and +0.75 of hyperopia with a maximum astigmatism of −0.75, in addition to their corresponding age-based presbyopia. Here, only those patients with the following characteristics were considered ideal candidates: an ACD (Anterior Chamber […] of the eye) greater than 2.5 mm, a White-to-White (horizontal diameter) greater than 11.4 mm and a value of photopic pupils higher than 3 mm. and of scotopic pupils lower than 6.5 mm, plus a correct convergence and binocularity and a density of the eye crystal lower than 25 measured with Pentacam. Additionally, only the non-dominant eye has been always treated, a situation that is not reflected in the studies of Dr. Benozzi, although we have evidence that recommends the use in both eyes. […]

[3] = after instillation on the ocular surface

| SMILES | concentrations in aqueous humor remained [1, 3] | measurable levels in the major ocular tissues [1, 3] | passage through the human cornea ([1]; human cornea) | inhibition of prostaglandin synthesis [2] | parasympathomimetic action of pilocarpine (presbyopia; compared with diclofenac of Dr. Benozzi's formula) | depth of focus of the treated eye (presbyopia; non-dominant eye treated) |
| --- | --- | --- | --- | --- | --- | --- |
| Nc1c(CC(=O)O)cccc1C(=O)c1ccc(Br)cc1 [bromfenac sodium sesquihydrate] | over 12 hours | ≤ 24 h | efficiently pass through the human cornea |  |  |  |
| Nc1c(CC(=O)O)cccc1C(=O)c1ccc(Br)cc1 [bromfenac] |  |  |  | inhibits prostaglandin synthesis | significantly extends | significant increase |
